# Source: ChEMBL document CHEMBL1201862, “PubChem BioAssay data set” (2004)
# Activity calls are given as the source filed them.
# What was measured:
# [1] = tested on: H9c2; assay: cells; assay type: functional, cell-based; settings: Rattus norvegicus, H9c2, Myocardium;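 further: confirmatory concentration-response retest of ultra-high-throughput screening hits for modulation of myocardial damage; cell death induced by hydrogen peroxide oxidative stress; compound pretreatment for 60 min then peroxide exposure for 2 h; potency is for protecting the cells against peroxide damage rather than for killing them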
# [2] = luciferase reporter signal suppression in cells – H4 neuroglioma cells, luminescence, dose response (AID 1990); assay type: functional, cell-based
# [3] = Luminescence Cell-Based Dose Response HTS to Identify Inhibitors of 5'UTR Stem-Loop Driven Prion Protein mRNA Translation in H4 Neuroglioblastoma Cells. [Related pubchem assays: 1827 (Project Summary), 1813 (Primary HTS)]; assay type: functional
# [4] = alpha-synuclein stem-loop luciferase translation blockers – H4 neuroglioma cells, luminescence, confirmation (AID 1988); assay type: functional, cell-based
# [5] = NIH-3T3 fibroblast cytotoxicity, dose response, cytotoxicity control, cell-based, fluorescence, Alamar Blue, secondary assay (AID 2327); assay type: functional;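 further: NIH-3T3 mouse fibroblasts cultured with fluconazole at 8 µg/mL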
# [6] = fluconazole-exposed Candida albicans growth modulators – fluorescence, retest, confirmation (AID 2467); assay type: functional, cell-based
# [7] = cells; assay type: functional
# [8] = target: T1, Ubiquitin-conjugating enzyme E2 N (Homo sapiens, UniProt P61088); assay type: functional;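 further: Dose-response confirmation in a TR-FRET assay detecting UBC13-driven polyubiquitin chain formation, inhibition measured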
# T1 sequence (P61088 whole entry): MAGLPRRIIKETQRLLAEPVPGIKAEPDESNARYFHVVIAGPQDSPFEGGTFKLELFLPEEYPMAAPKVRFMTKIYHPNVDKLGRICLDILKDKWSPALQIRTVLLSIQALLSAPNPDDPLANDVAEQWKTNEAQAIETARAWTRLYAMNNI
# [9] = target: Paired box protein Pax-8 (Homo sapiens, UniProt Q06710); assay: PAX8 transcriptional activity inhibition in RMG-I – RMG-I cells, luciferase, cherry-pick, dose response (AID 687027); assay type: functional, cell-based;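 further: luciferase reporter driven by Pax8 target thyroperoxidase promoter measured by SteadyGlo luminescence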
# Sequence of Paired box protein Pax-8 (Q06710 whole entry): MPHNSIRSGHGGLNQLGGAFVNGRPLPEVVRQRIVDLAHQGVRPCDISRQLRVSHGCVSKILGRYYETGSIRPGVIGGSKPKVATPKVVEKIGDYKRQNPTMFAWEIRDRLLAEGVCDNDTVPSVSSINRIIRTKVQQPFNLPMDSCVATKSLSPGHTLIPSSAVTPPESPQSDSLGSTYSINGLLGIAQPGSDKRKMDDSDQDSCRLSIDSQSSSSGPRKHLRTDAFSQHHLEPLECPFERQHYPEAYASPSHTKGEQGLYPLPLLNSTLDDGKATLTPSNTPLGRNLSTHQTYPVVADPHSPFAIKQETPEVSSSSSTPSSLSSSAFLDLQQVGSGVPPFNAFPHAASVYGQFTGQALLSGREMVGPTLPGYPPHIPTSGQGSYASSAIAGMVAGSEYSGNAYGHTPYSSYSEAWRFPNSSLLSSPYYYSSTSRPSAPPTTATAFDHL
# [10] = tested on: P388/ADR; assay: cells; assay type: functional; settings: Mus musculus
# [11] = tested on: SN12K1; assay: cells; assay type: functional; settings: Homo sapiens
# [12] = tested on: P388; assay: cells; assay type: functional; settings: Mus musculus
# [13] = tested on: Vero; assay: cells; assay type: functional; settings: Chlorocebus sabaeus
# [14] = tested on: Streptococcus sp. 'group A'; assay: Streptococcus pyogenes SK(-)GAS viability under kanamycin – luminescence, BacTiterGlo, confirmation, counter-screen for streptokinase expression inhibitor project, dose response (AID 1900); assay type: functional, organism-based
# [15] = cells; assay type: functional, cell-based
# [16] = target: T2, Streptokinase A (Streptococcus pyogenes serotype M1, UniProt P10520); assay: viability-normalized secreted streptokinase activity reduction – plasminogen activation absorbance, OD405, dose response (AID 1914); assay type: functional, Streptococcus pyogenes M1 GAS;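 further: secreted streptokinase activity via plasminogen activation per viability signal from cell pellet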
# T2 sequence (P10520 whole entry): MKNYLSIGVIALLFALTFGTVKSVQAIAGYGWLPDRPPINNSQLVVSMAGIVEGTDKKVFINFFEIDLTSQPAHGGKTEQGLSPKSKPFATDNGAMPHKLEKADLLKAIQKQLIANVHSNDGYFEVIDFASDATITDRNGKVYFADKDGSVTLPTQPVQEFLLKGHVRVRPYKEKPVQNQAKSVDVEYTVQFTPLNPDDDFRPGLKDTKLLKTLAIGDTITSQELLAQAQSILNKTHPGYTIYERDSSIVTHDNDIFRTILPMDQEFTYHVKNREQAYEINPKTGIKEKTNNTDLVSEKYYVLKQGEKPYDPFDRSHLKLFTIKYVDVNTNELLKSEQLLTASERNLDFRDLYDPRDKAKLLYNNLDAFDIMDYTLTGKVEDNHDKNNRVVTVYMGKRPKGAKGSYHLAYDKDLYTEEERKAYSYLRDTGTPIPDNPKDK
# [17] = cells; assay type: functional, cell-based; remark: listed apart in the source
# [18] = tested on: Streptococcus; assay: GAS UMAA2166 growth inhibition – luminescence, BacTiterGlo, counter-screen for streptokinase expression inhibitor project, dose response (AID 1915); assay type: functional, organism-based;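 further: potency for reduction of bacterial viability or growth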
# [19] = tested on: INS1; assay: INS-1E survival protection against cytokine death – cell-based, luminescence, retest, dose response (AID 449756); assay type: functional; settings: Rattus norvegicus;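 further: cell death triggered by IL-1 beta plus TNF-alpha plus IFN-gamma mixture; protective hits raise ATP signal compared with cytokine alone wells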
compound,measurement,setting,value
Cn1c(=O)[nH]c(=O)c2c1nc(Br)n2CC(O)COc1ccc(Cl)cc1 (stereo not given),IC50,[1],> 79 µM (inactive)
COc1ccc(C(=O)Nc2ccc[n+](-c3nc4ccccc4nc3[N-]S(=O)(=O)c3ccccc3)c2)cc1,EC50,[2],> 120 µM (not active)
same,EC50,[3],> 120 µM (not active)
same,EC50,[4],> 120 µM (not active)
COc1ccc(C(=O)Nc2ccccc2N2CCOCC2)cc1[N+](=O)[O-],EC50,[2],> 120 µM (not active)
same,EC50,[3],> 120 µM (not active)
same,EC50,[4],> 120 µM (not active)
CCc1ccccc1N=C(S)N1CCCCCC1,EC50,[5],42.1 µM (active)
same,EC50,[6],> 38 µM (not active)
O=C(c1cc2ccccc2o1)N1CCN(Cc2ccccc2)CC1,IC50,[7],18.8 µM (active)
Oc1nnc(Cc2ccccn2)c2ccccc12,IC50,[1],39.4 µM (inactive)
CCN(Cc1ccccc1)S(=O)(=O)c1ccc(C(=O)N(CCCN(C)C)c2nc3cc4c(cc3s2)OCO4)cc1,IC50,[8],> 20 µM (inactive)
O=c1cc(CSc2ccc([N+](=O)[O-])cc2)nc2sccn12,IC50,[1],> 79 µM (inactive)
CCOC(=O)COc1ccc2c(=O)c(-c3ccccc3OC)coc2c1,IC50,[7],1.45 µM (active)
O=C(O)c1ccc(NS(=O)(=O)/C=C/c2ccccc2)cc1O,IC50,[7],16.6 µM (active)
CCCCn1c(=O)[nH]c(=O)c2c1nc(-c1ccc(OC(F)F)c(OC)c1)n2C,EC50,[2],24.6 µM (active)
same,EC50,[3],> 120 µM (not active)
same,EC50,[4],> 120 µM (not active)
CCN1C(=O)/C(=C/c2nc(O)c3ccccc3n2)c2ccccc21,IC50,[1],> 79 µM (inactive)
CCCCn1c(N2CCCC2)nc2c1c(=O)[nH]c(=O)n2C,EC50,[2],> 120 µM (not active)
same,EC50,[3],> 120 µM (not active)
same,EC50,[4],> 120 µM (not active)
CCOC(=O)N1CCC(NC(=O)c2cc3c(-c4ccccc4F)nn(C)c3s2)CC1,IC50,[1],10.6 µM (active)
CCOc1ncccc1C(=O)Nc1cccc(-c2nc3cccnc3s2)c1,IC50,[1],> 79 µM (inactive)
Cc1cccnc1NC(=O)c1c(O)c2ccccc2n(C)c1=O,IC50,[7],25 µM (active)
O=C1c2ccccc2NC(c2cnc3ccccc3n2)N1O (stereo not given),EC50,[5],> 160 µM (inactive)
same,EC50,[6],> 38 µM (not active)
CC(=O)c1c(C)oc2ccc(N(C(C)=O)S(=O)(=O)c3ccc(Cl)c([N+](=O)[O-])c3)cc12,EC50,[2],7.87 µM (active)
same,EC50,[3],8.95 µM (active)
same,EC50,[4],7.59 µM (active)
CCNc1nc(SCc2ccccc2)nc(N2CCOCC2)n1,EC50,[2],13.1 µM (active)
same,EC50,[3],> 120 µM (not active)
same,EC50,[4],16.8 µM (active)
O=S(=O)(Nc1cccc(-c2cn3cccnc3n2)c1)c1ccc(Cl)cc1,AC50,[9],43.5 µM (active)
COc1ccc(NCc2nnc(O)c3ccccc23)cc1,IC50,[1],> 79 µM (inactive)
O=C(CN1C(=O)COc2ccccc21)NCCCN1CCc2ccccc2C1,EC50,[5],> 150 µM (inactive)
same,EC50,[6],> 38 µM (not active)
COc1cc2[nH]c(Cl)c([N+](=O)[O-])c2cc1OC,IC50,[7],23.1 µM (active)
O=C(Nc1ccccn1)c1cc(-c2cccnc2)nc2ccc(Br)cc12,EC50,[2],10.9 µM (active)
same,EC50,[3],13.5 µM (active)
same,EC50,[4],8.63 µM (active)
CN(CCc1cn[nH]c1)Cc1nc(C(c2ccccc2)c2ccccc2)no1,AC50,[9],65 µM (active)
CC(=O)NC(c1cccs1)c1cc(Cl)c2ccccc2c1O (stereo not given),IC50,[8],> 20 µM (inactive)
CSc1nc2ccc(S(=O)(=O)Nc3c(C)n(C)n(-c4ccccc4)c3=O)cc2s1,IC50,[1],> 79 µM (inactive)
[N-]=[N+]=CC(=O)CCC(N)C(=O)O (stereo not given),GI50,[10],0.112 µM (active)
same,GI50,[11],0.871 µM (active)
same,GI50,[12],0.0991 µM (active)
CC1=CC(O)C(O)C2(C)C1CC1OC(=O)C(O)C3C(C)C(O)C4(O)OCC13C42 (stereo not given),GI50,[10],> 625 µM (inactive)
same,GI50,[11],3.63 µM (inactive)
same,GI50,[12],> 29 µM (inactive)
O=c1cc(-c2cccnc2)oc2c1ccc1ccccc12,IC50,[1],> 79 µM (inactive)
CN(C(=O)CCN1C(=O)/C(=C/c2ccc(F)cc2)SC1=S)C1CCS(=O)(=O)C1 (stereo not given),CC50,[13],> 25 µM (active)
CCNC(=O)C(C)C1CCC2(C)C=CC(=O)C(C)=C2C1O (stereo not given),GI50,[10],> 100 µM (inactive)
same,GI50,[11],> 100 µM (inactive)
same,GI50,[12],> 100 µM (inactive)
O=C(N/N=C/c1cccs1)c1cncc(Br)c1,IC50,[7],10.7 µM (active)
O=NN(CCCl)C(=O)Nc1ccc(Cl)c(Cl)c1,GI50,[10],65 µM (inactive)
same,GI50,[11],84.9 µM (inactive)
same,GI50,[12],49.1 µM (inactive)
O=C(NCCCCCCNC(=O)n1cc(F)c(=O)[nH]c1=O)NCCCOCCOCCOCCOCCOCCOCCOCCOCCOCCOCCOCCOCCOCCOCCOCCOCCOCCOCCOCCOCCOCCCNC(=O)C(O)C(O)C(O)C(O)CO (stereo not given),GI50,[10],0.492 µM (active)
same,GI50,[11],6.15 µM (inactive)
same,GI50,[12],0.879 µM (active)
C/C(=N\NC(=[Se])N(C)C)c1ccccn1,GI50,[10],< 0.01 µM (active)
same,GI50,[11],< 0.01 µM (active)
same,GI50,[12],< 0.01 µM (active)
O=C1OC2CC=CC1C2 (stereo not given),GI50,[10],> 100 µM (inactive)
same,GI50,[11],> 100 µM (inactive)
same,GI50,[12],> 100 µM (inactive)
CC(C)[C@](O)(C(=O)OCC1CC[N+]2([O-])CC[C@@H](O)C12)[C@H](C)O (stereo not given in full),GI50,[10],> 375 µM (inactive)
same,GI50,[11],> 375 µM (inactive)
same,GI50,[12],> 364 µM (inactive)
COc1ccc(/C=N/NC(=O)c2cccnc2)cc1CN1CCc2ccccc2C1,IC50,[1],10.6 µM (active)
CC[C@]12C=CCN3CC[C@@]4(c5ccc(OC)cc5N(C)[C@H]4[C@@](O)(C(=O)OC)[C@@H]1OC(C)=O)[C@@H]32,GI50,[10],95.3 µM (inactive)
same,GI50,[11],193 µM (inactive)
same,GI50,[12],14.5 µM (inactive)
CCOC(=O)CN1CCS/C1=N/C#N,GI50,[10],> 100 µM (inactive)
same,GI50,[11],> 100 µM (inactive)
same,GI50,[12],> 100 µM (inactive)
COc1cc(C(=O)N/N=C/C2CC=CCC2)cc(OC)c1OC (stereo not given),EC50,[2],> 120 µM (not active)
same,EC50,[3],> 120 µM (not active)
same,EC50,[4],> 120 µM (not active)
COc1cccc2c1[C@H]1CO[C@H]3C4C[C@H](C(=O)O)C([C@@H](C2)N13)N4C (stereo not given in full),GI50,[10],0.0906 µM (active)
same,GI50,[11],0.483 µM (active)
same,GI50,[12],1.08 µM (active)
C/C(=N\NC(=O)CSCc1ccc([N+](=O)[O-])cc1)c1cccc(Br)c1,IC50,[8],> 20 µM (inactive)
Cc1cc(C)nc(N/N=C/c2cc(Br)ccc2O)n1,EC50,[14],8.51 µM (active)
same,EC50,[15],7.66 µM (active)
same,EC50,[16],> 150 µM (not active)
same,EC50,[17],> 350 µM (not active)
same,EC50,[18],146 µM (active)
same,AC50,[19],3.35 µM (active)
CO[C@H]1[C@@H](O)[C@@H](O)O[C@@H](O[C@H]2CC[C@@]3(C)[C@H](CC[C@@H]4[C@@H]3[C@H](O)C[C@]3(C)[C@@H](C5=CC(=O)OC5)CC[C@]43O)C2)[C@@H]1O,AC50,[9],0.809 µM (active)
Nc1ncnc2c1nnn2C1OC(CO)C(O)C1O (stereo not given),GI50,[10],8.43 µM (inactive)
same,GI50,[11],1.71 µM (inactive)
same,GI50,[12],3.42 µM (inactive)
